# Test results taken from PubChem BioAssay AID2060503 (Molecular Pharmacology Branch, DTP, NCI, 2025).
# System: 817829-284-R-J1-PDC complex spheroids, viability
# Assay: Anticancer human tumor 817829-284-R-J1-PDC patient-derived colon adenocarcinoma cell line growth inhibition [GQUAD]
# Conditions: second compound 0.316 µM; first compound 0.316 µM; stronger effect = lower value
# In short: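 Viability of tumor cells grown as complex spheroids with endothelial and stromal cells, exposed to drug combinations. Top concentration at or near clinical Cmax (else 10 microM), diluted in half-log increments.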
# 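Further: spheroids exposed to agents for 7 days before readout; percent viability relative to DMSO vehicle control taken as 100%.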
row,SMILES,"viability, T/C [%]"
1,COc1cccc2c1C(=O)c1c(O)c3c(c(O)c1C2=O)CC(O)(C(=O)CO)CC3OC1CC(N)C(O)C(C)O1 (stereo unspecified) + Cc1[nH]c2ccc(F)cc2c1-c1nc2c3cccnc3c3ncccc3c2[nH]1,32.1
2,Cc1cccc(N(C)C(=O)C2C(O)CCN2c2nc(C)cc(C(F)(F)F)c2C#N)c1 (stereo unspecified) + Cc1[nH]c2ccc(F)cc2c1-c1nc2c3cccnc3c3ncccc3c2[nH]1,99.3
3,O=C(c1cc(Cc2n[nH]c(=O)c3ccccc23)ccc1F)N1CCN(C(=O)C2CC2)CC1 + Cc1[nH]c2ccc(F)cc2c1-c1nc2c3cccnc3c3ncccc3c2[nH]1,97.9

# Same assay, conditions: second compound 0.316 µM; first compound 1 µM; stronger effect = lower value
row,SMILES,"viability, T/C [%]"
1,C=CC(=O)N1CCN(c2nc(=O)n(-c3c(C)ccnc3C(C)C)c3nc(-c4c(O)cccc4F)c(F)cc23)C(C)C1 (stereo unspecified) + Cc1[nH]c2ccc(F)cc2c1-c1nc2c3cccnc3c3ncccc3c2[nH]1,101
2,CC(C)n1c(=O)n(C)c2cnc3cc(F)c(-c4ccc(OCCCN5CCCCC5)nc4)cc3c21 + Cc1[nH]c2ccc(F)cc2c1-c1nc2c3cccnc3c3ncccc3c2[nH]1,103
3,COc1cc(C2c3cc4c(cc3C(OC3OC5COC(C)OC5C(O)C3O)C3COC(=O)C23)OCO4)cc(OC)c1O (stereo unspecified) + Cc1[nH]c2ccc(F)cc2c1-c1nc2c3cccnc3c3ncccc3c2[nH]1,32.7
4,COc1cccc2c1C(=O)c1c(O)c3c(c(O)c1C2=O)CC(O)(C(=O)CO)CC3OC1CC(N)C(O)C(C)O1 (stereo unspecified) + Cc1[nH]c2ccc(F)cc2c1-c1nc2c3cccnc3c3ncccc3c2[nH]1,14.2
5,Cc1cccc(N(C)C(=O)C2C(O)CCN2c2nc(C)cc(C(F)(F)F)c2C#N)c1 (stereo unspecified) + Cc1[nH]c2ccc(F)cc2c1-c1nc2c3cccnc3c3ncccc3c2[nH]1,115
6,O=C(c1cc(Cc2n[nH]c(=O)c3ccccc23)ccc1F)N1CCN(C(=O)C2CC2)CC1 + Cc1[nH]c2ccc(F)cc2c1-c1nc2c3cccnc3c3ncccc3c2[nH]1,96.6

# Same assay, conditions: second compound 0.316 µM; first compound 3.16 µM; stronger effect = lower value
row,SMILES,"viability, T/C [%]"
1,C=CC(=O)N1CCN(c2nc(=O)n(-c3c(C)ccnc3C(C)C)c3nc(-c4c(O)cccc4F)c(F)cc23)C(C)C1 (stereo unspecified) + Cc1[nH]c2ccc(F)cc2c1-c1nc2c3cccnc3c3ncccc3c2[nH]1,102
2,CC(C)n1c(=O)n(C)c2cnc3cc(F)c(-c4ccc(OCCCN5CCCCC5)nc4)cc3c21 + Cc1[nH]c2ccc(F)cc2c1-c1nc2c3cccnc3c3ncccc3c2[nH]1,117
3,COc1cc(C2c3cc4c(cc3C(OC3OC5COC(C)OC5C(O)C3O)C3COC(=O)C23)OCO4)cc(OC)c1O (stereo unspecified) + Cc1[nH]c2ccc(F)cc2c1-c1nc2c3cccnc3c3ncccc3c2[nH]1,28.9
4,COc1cccc2c1C(=O)c1c(O)c3c(c(O)c1C2=O)CC(O)(C(=O)CO)CC3OC1CC(N)C(O)C(C)O1 (stereo unspecified) + Cc1[nH]c2ccc(F)cc2c1-c1nc2c3cccnc3c3ncccc3c2[nH]1,0.67
5,Cc1cccc(N(C)C(=O)C2C(O)CCN2c2nc(C)cc(C(F)(F)F)c2C#N)c1 (stereo unspecified) + Cc1[nH]c2ccc(F)cc2c1-c1nc2c3cccnc3c3ncccc3c2[nH]1,111
6,O=C(c1cc(Cc2n[nH]c(=O)c3ccccc23)ccc1F)N1CCN(C(=O)C2CC2)CC1 + Cc1[nH]c2ccc(F)cc2c1-c1nc2c3cccnc3c3ncccc3c2[nH]1,95.4

# Same assay, conditions: second compound 0.316 µM; first compound 10 µM; stronger effect = lower value
row,SMILES,"viability, T/C [%]"
1,C=CC(=O)N1CCN(c2nc(=O)n(-c3c(C)ccnc3C(C)C)c3nc(-c4c(O)cccc4F)c(F)cc23)C(C)C1 (stereo unspecified) + Cc1[nH]c2ccc(F)cc2c1-c1nc2c3cccnc3c3ncccc3c2[nH]1,104
2,CC(C)n1c(=O)n(C)c2cnc3cc(F)c(-c4ccc(OCCCN5CCCCC5)nc4)cc3c21 + Cc1[nH]c2ccc(F)cc2c1-c1nc2c3cccnc3c3ncccc3c2[nH]1,103
3,COc1cc(C2c3cc4c(cc3C(OC3OC5COC(C)OC5C(O)C3O)C3COC(=O)C23)OCO4)cc(OC)c1O (stereo unspecified) + Cc1[nH]c2ccc(F)cc2c1-c1nc2c3cccnc3c3ncccc3c2[nH]1,9.89
4,COc1cccc2c1C(=O)c1c(O)c3c(c(O)c1C2=O)CC(O)(C(=O)CO)CC3OC1CC(N)C(O)C(C)O1 (stereo unspecified) + Cc1[nH]c2ccc(F)cc2c1-c1nc2c3cccnc3c3ncccc3c2[nH]1,0.16
5,Cc1cccc(N(C)C(=O)C2C(O)CCN2c2nc(C)cc(C(F)(F)F)c2C#N)c1 (stereo unspecified) + Cc1[nH]c2ccc(F)cc2c1-c1nc2c3cccnc3c3ncccc3c2[nH]1,100
6,O=C(c1cc(Cc2n[nH]c(=O)c3ccccc23)ccc1F)N1CCN(C(=O)C2CC2)CC1 + Cc1[nH]c2ccc(F)cc2c1-c1nc2c3cccnc3c3ncccc3c2[nH]1,60.8

# Same assay, conditions: second compound 1 µM; first compound 0.000999 µM; stronger effect = lower value
row,SMILES,"viability, T/C [%]"
1,CCc1c2c(nc3ccc(O)cc13)-c1cc3c(c(=O)n1C2)COC(=O)[C@]3(O)CC + Cc1[nH]c2ccc(F)cc2c1-c1nc2c3cccnc3c3ncccc3c2[nH]1,43

# Same assay, conditions: second compound 1 µM; first compound 0.00316 µM; stronger effect = lower value
row,SMILES,"viability, T/C [%]"
1,CCc1c2c(nc3ccc(O)cc13)-c1cc3c(c(=O)n1C2)COC(=O)[C@]3(O)CC + Cc1[nH]c2ccc(F)cc2c1-c1nc2c3cccnc3c3ncccc3c2[nH]1,30.6

# Same assay, conditions: second compound 1 µM; first compound 0.00999 µM; stronger effect = lower value
row,SMILES,"viability, T/C [%]"
1,CCc1c2c(nc3ccc(O)cc13)-c1cc3c(c(=O)n1C2)COC(=O)[C@]3(O)CC + Cc1[nH]c2ccc(F)cc2c1-c1nc2c3cccnc3c3ncccc3c2[nH]1,24.6

# Same assay, conditions: second compound 1 µM; first compound 0.0316 µM; stronger effect = lower value
row,SMILES,"viability, T/C [%]"
1,C=CC(=O)N1CCN(c2nc(=O)n(-c3c(C)ccnc3C(C)C)c3nc(-c4c(O)cccc4F)c(F)cc23)C(C)C1 (stereo unspecified) + Cc1[nH]c2ccc(F)cc2c1-c1nc2c3cccnc3c3ncccc3c2[nH]1,82.1
2,CC(C)n1c(=O)n(C)c2cnc3cc(F)c(-c4ccc(OCCCN5CCCCC5)nc4)cc3c21 + Cc1[nH]c2ccc(F)cc2c1-c1nc2c3cccnc3c3ncccc3c2[nH]1,87.5
3,CCc1c2c(nc3ccc(O)cc13)-c1cc3c(c(=O)n1C2)COC(=O)[C@]3(O)CC + Cc1[nH]c2ccc(F)cc2c1-c1nc2c3cccnc3c3ncccc3c2[nH]1,15
4,COc1cc(C2c3cc4c(cc3C(OC3OC5COC(C)OC5C(O)C3O)C3COC(=O)C23)OCO4)cc(OC)c1O (stereo unspecified) + Cc1[nH]c2ccc(F)cc2c1-c1nc2c3cccnc3c3ncccc3c2[nH]1,85.6
5,COc1cccc2c1C(=O)c1c(O)c3c(c(O)c1C2=O)CC(O)(C(=O)CO)CC3OC1CC(N)C(O)C(C)O1 (stereo unspecified) + Cc1[nH]c2ccc(F)cc2c1-c1nc2c3cccnc3c3ncccc3c2[nH]1,80.5
6,Cc1cccc(N(C)C(=O)C2C(O)CCN2c2nc(C)cc(C(F)(F)F)c2C#N)c1 (stereo unspecified) + Cc1[nH]c2ccc(F)cc2c1-c1nc2c3cccnc3c3ncccc3c2[nH]1,96.6
7,O=C(c1cc(Cc2n[nH]c(=O)c3ccccc23)ccc1F)N1CCN(C(=O)C2CC2)CC1 + Cc1[nH]c2ccc(F)cc2c1-c1nc2c3cccnc3c3ncccc3c2[nH]1,85.9

# Same assay, conditions: second compound 1 µM; first compound 0.0999 µM; stronger effect = lower value
row,SMILES,"viability, T/C [%]"
1,CCc1c2c(nc3ccc(O)cc13)-c1cc3c(c(=O)n1C2)COC(=O)[C@]3(O)CC + Cc1[nH]c2ccc(F)cc2c1-c1nc2c3cccnc3c3ncccc3c2[nH]1,8.8

# Same assay, conditions: second compound 1 µM; first compound 0.1 µM; stronger effect = lower value
row,SMILES,"viability, T/C [%]"
1,C=CC(=O)N1CCN(c2nc(=O)n(-c3c(C)ccnc3C(C)C)c3nc(-c4c(O)cccc4F)c(F)cc23)C(C)C1 (stereo unspecified) + Cc1[nH]c2ccc(F)cc2c1-c1nc2c3cccnc3c3ncccc3c2[nH]1,97
2,CC(C)n1c(=O)n(C)c2cnc3cc(F)c(-c4ccc(OCCCN5CCCCC5)nc4)cc3c21 + Cc1[nH]c2ccc(F)cc2c1-c1nc2c3cccnc3c3ncccc3c2[nH]1,104
3,COc1cc(C2c3cc4c(cc3C(OC3OC5COC(C)OC5C(O)C3O)C3COC(=O)C23)OCO4)cc(OC)c1O (stereo unspecified) + Cc1[nH]c2ccc(F)cc2c1-c1nc2c3cccnc3c3ncccc3c2[nH]1,89.7
4,COc1cccc2c1C(=O)c1c(O)c3c(c(O)c1C2=O)CC(O)(C(=O)CO)CC3OC1CC(N)C(O)C(C)O1 (stereo unspecified) + Cc1[nH]c2ccc(F)cc2c1-c1nc2c3cccnc3c3ncccc3c2[nH]1,38
